Nine compounds from patent US8163901B2, “Amide derivatives as ion-channel ligands and pharmaceutical compositions and methods of using the same” (Evotec AG, priority 2008, dated 2012) can be followed below.

Assay [1] has as its target T1, hVR1 (Homo sapiens, UniProt Q8NER1).
T1 construct: R710-07 (T-REx host cell line); host or cells: T-REx System cell line, called 'human keratinocyte cell line' and 'HEK 293 cells'
The assay can be described thus: Calcium uptake assay (FLIPR), inhibition of capsaicin-induced calcium influx. It counts as cell-based. How it is done:
Functional activity of compounds against the VR1 receptor was determined by measuring changes in intracellular calcium in HEK 293 cells expressing hVR1. Compounds were examined for their ability to inhibit agonist-induced calcium influx. Relative levels of [Ca^2+] were monitored in a 96-well format using a calcium-sensitive fluorescence dye and a FLIPR TETRA, Molecular Devices.
Cells that express high levels of VR1 were obtained by generation of a cell line from human keratinocytes with heterologous expression of VR1 under control of an inducible promoter. Specifically, cells expressing human VR1 under the control of the human cytomegalovirus immediate-early (CMV) promoter and two tetracycline operator 2 (TetO2) sites were made using the T-REx System (Invitrogen, Carlsbad, Calif., USA). Details and methods concerning this system are published (Hum. Gene Ther. 9, pp. 1939-1950, 1998; Annu. Rev. Microbiol. 48, pp. 345-369, 1994; Mol. Biol. 169, pp. 707-'721, 1983). Human VR1 was subcloned into the T-REx System pcDNA5/TO vector (Invitrogen Cat# V1033-20) which was transfected into the T-REx System human keratinocyte cell line (Invitrogen Cat# R710-07) from which a stable cell line was established which expresses VR1 after induction by exposure to tetracycline or doxycycline (Hum. Gene Ther. 9, pp. 1939-1950, 1998; instructions that come with purchase of products noted above). Cells were maintained in a CO2 incubator (5% CO2) at 37° C. in culture medium containing DMEM with phenol red (Mediatech Cat #: 15-017-CV) supplemented with 10% heat-inactivated Fetal Bovine Serum, 5% Penicillin-streptomycin (Mediatech Cat #: 30-002-CI), 5% Glutamax® (L-Alanyl-L-Glutamine, Mediatech Cat #: 25-015-CI), 200 μg/ml hygromycin (Mediatech #:30-240-CR), 0.5 μg/ml blasticidin (Invitrogen #46-1120)).
For assay preparation, cells expressing human VR1 as described above were plated in 96-well plates (Becton Dickinson [BD] poly-D-lysine coated 96-well plates, cat #356692) at 55,000 cells per well in culture media (described above) that also contained 1 ug/ml doxycycline. Plated cells were then placed in an incubator (5% CO2) and incubated for 20-26 hours at 37° C., until the cells had grown to near confluency. Media was then aspirated from cells and 50 uL of dye-containing buffer (from Molecular Devices FLIPR Calcium 4 Assay kit, cat# R8141) was added to each well. Cells were then left in the dark at room temperature for 1.5-2 hours. Cell plates were then placed in the FLIPR TETRA (Molecular Devices, CA, USA). Test compounds and agonists were added to wells using the liquid handling capability of the FLIPR TETRA. Calcium responses of the cells were monitored by fluorescence readout of dye signal. Test compounds in saline (130 mM NaCl, 17 g/L sucrose, 1.8 g/L glucose, 8.8 mM HEPES, 3 mM KCl, 0.60 mM MgCl, 1.0 mM CaCl2; adjust to pH 7.4 using NaOH; 0.03% BSA added on the day of the experiment), or vehicle control in saline, were pre-incubated at the desired final concentrations in the dark at room temperature for 2 or 30 minutes with cells already containing the above mentioned dye buffer (dye solution was diluted 1:1 in culture wells with saline containing 2× the final concentration of test compound). […] Another agonist was protons via a low pH solution (saline solution described above plus 10 mM citric acid buffered to pH 5.7 with HCl instead of buffering to a neutral pH with NaOH as done for normal saline). Compounds were tested at various concentration ranges, depending upon potency of compound. After the 2 minute or 30 minute compound pre-treatment, treatment solution was then added to cells by adding a volume of treatment solution equal to the pretreatment solution already on the cells.

In assay [2] the target is T1, hVR1. In words: Determination of pA2 values against capsaicin stimulation (Ca2+ imaging, Schild analysis). The format is cell-based. On the procedure:
Changes in the fluorescence signal (λex=470-495 nm, λem=515-575 nm) are monitored throughout the experiment before agonist addition and for at least 2 min after agonist addition (enough time for the fluorescence response to reach and then decline from the absolute maximum, agonist-induced signal attained). For each well, final relative fluorescence units (RFUs) are calculated as the difference between the maximum fluorescence signal obtained in the experiment after agonist addition and the signal level seen at baseline before agonist, but after antagonist, addition (the absolute minimum level of fluorescence signal observed in the 10 seconds prior to agonist addition). […] Data are fit to an ideal curve utilizing the 4-parameter sigmoid curve-fit function in GraphPad Prism software (version 4, GraphPad Software, Inc., San Diego, Calif., USA) from which an EC50 value is obtained. […] For each antagonist, at least three concentrations are tested. Dose Ratio values are then used to make a standard Schild plot—log [antagonist concentration] plotted against log [DR−1], see Kenakin reference above for theoretical background and method. A linear regression curve-fit is then performed on these plotted points. […] If these conditions are not met, then the antagonist is rerun in a pA2 assay using different antagonist concentrations until the above conditions are met.

T1 sequence (Q8NER1 whole entry): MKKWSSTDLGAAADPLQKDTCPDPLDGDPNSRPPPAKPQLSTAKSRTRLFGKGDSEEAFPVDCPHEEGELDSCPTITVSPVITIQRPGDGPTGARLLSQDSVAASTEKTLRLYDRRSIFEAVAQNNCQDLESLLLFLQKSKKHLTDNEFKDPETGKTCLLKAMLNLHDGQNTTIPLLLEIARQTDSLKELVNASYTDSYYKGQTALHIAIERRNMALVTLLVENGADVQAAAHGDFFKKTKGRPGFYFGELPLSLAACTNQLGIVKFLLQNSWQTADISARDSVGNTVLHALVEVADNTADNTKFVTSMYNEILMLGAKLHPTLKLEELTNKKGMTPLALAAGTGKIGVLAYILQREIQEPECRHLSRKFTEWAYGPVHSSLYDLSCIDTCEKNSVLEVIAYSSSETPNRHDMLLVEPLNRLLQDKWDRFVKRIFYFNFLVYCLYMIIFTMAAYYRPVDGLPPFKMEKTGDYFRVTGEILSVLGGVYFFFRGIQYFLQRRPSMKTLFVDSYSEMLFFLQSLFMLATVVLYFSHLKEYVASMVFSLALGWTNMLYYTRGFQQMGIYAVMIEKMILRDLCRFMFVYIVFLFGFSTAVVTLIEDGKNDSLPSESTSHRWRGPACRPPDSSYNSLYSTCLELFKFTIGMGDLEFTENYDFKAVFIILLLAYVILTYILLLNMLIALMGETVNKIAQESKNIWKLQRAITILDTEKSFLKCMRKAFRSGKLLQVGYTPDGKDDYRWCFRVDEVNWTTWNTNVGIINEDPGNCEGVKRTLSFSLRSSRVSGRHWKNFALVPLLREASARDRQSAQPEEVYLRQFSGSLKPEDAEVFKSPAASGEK

Turning to `CC(NC(=O)[C@@H]1COc2cc(C(C)(C)C)ccc2O1)c1ccc2[nH]ncc2c1` (single isomer, unassigned) [Compound 6], the IC50 on hVR1 [1] came out at 0.103 µM. Consider `CC(NC(=O)C1CCc2nc(C(C)(C)C(F)(F)F)ccc2C1)c1ccc2[nH]ncc2c1` (stereo not drawn) [Compound 10, 2-(2,2,2-Trifluoro-1,1-dimethyl-ethyl)-5,6,7,8-tetrahydro-quinoline-6-carboxylic acid [1-(1H-indazol-5-yl)-ethyl]-amide], for which, at hVR1 [1], the IC50 was determined as 0.008 µM. Further, the Kb at hVR1 [2] was 0.00432 µM. Regarding `CC(NC(=O)[C@H]1COc2cc(C(F)(F)F)ccc2O1)c1ccc2[nH]ncc2c1` (stereo partly drawn) [Compound 13, (R)-6-Trifluoromethyl-2,3-dihydro-benzo[1,4]dioxine-2-carboxylic acid [1-(1H-indazol-5-yl)-ethyl]-amide], the IC50 on hVR1 [1] is 0.064 µM. Further, the Kb on hVR1 [2] is 0.0374 µM. Consider `CC(NC(=O)[C@@H]1COc2cc(C(F)(F)F)ccc2O1)c1ccc2[nH]ncc2c1` (stereo partly drawn) [Compound 14, (S)-6-Trifluoromethyl-2,3-dihydro-benzo[1,4]dioxine-2-carboxylic acid [1-(1H-indazol-5-yl)-ethyl]-amide], for which, at hVR1 [1], the IC50 worked out at 0.82 µM and the inhibition at 1 µM came out at 54%. Turning to `O=C(Nc1cnc2c(c1)COCC2)[C@H]1COc2cc(C(F)(F)F)ccc2O1` [Compound 17, (R)-6-Trifluoromethyl-2,3-dihydro-benzo[1,4]dioxine-2-carboxylic acid (7,8-dihydro-5H-pyrano[4,3-b]pyridin-3-yl)-amide], on hVR1 [1], the IC50 turned out to be 0.14 µM.

`C[C@@H](NC(=O)[C@@H]1CCc2nc(C(C)(C)C(F)(F)F)ccc2C1)c1cnn2c1OCCC2` [Compound 20, (R)-2-(2,2,2-Trifluoro-1,1-dimethyl-ethyl)-5,6,7,8-tetrahydro-quinoline-6-carboxylic acid [(R)-1-(6,7-dihydro-5H-pyrazolo[5,1-b][1,3]oxazin-3-yl)-ethyl]-amide]: the IC50 on hVR1 [1] came to 0.31 µM. For the compound `C[C@@H](NC(=O)[C@H]1CCc2nc(C(C)(C)C(F)(F)F)ccc2C1)c1cnn2c1OCCC2` [Compound 22, (S)—N—((R)-1-(6,7-dihydro-5H-pyrazolo[5,1-b][1,3]oxazin-3-yl)ethyl)-2-(1,1,1-trifluoro-2-methylpropan-2-yl)-5,6,7,8-tetrahydroquinoline-6-carboxamide], on hVR1 [1], the IC50 was found to be 0.076 µM. This compound gave a Kb on hVR1 [2] of 0.0595 µM.

Turning to `C[C@@H](NC(=O)[C@@H]1COc2cc(C(F)(F)F)ccc2O1)c1ccc2[nH]ncc2c1` [Compound 25, (S)-6-Trifluoromethyl-2,3-dihydro-benzo[1,4]dioxine-2-carboxylic acid 1[(R)-1-(1H-indazol-5-yl)-ethyl]-amide], on hVR1 [1], the IC50 was found to be 0.15 µM. This compound had a Kb at hVR1 [2] of 0.188 µM. Regarding `C[C@@H](NC(=O)[C@H]1COc2cc(C(F)(F)F)ccc2O1)c1ccc2[nH]ncc2c1` [Compound 26, (R)-6-Trifluoromethyl-2,3-dihydro-benzo[1,4]dioxine-2-carboxylic acid [(R)-1-(1H-indazol-5-yl)-ethyl]-amide], the IC50 on hVR1 [1] was found to be 0.093 µM. Besides, the Kb on hVR1 [2] is 0.0225 µM.

The term IC50 denotes the concentration that inhibits the measured activity by half. One may read the inhibition as the change of the read-out against control, counted positive when it falls.
